Literature values as cited in US9610289B2, “Combinations of AKT inhibitor compounds and erlotinib, and methods of use” (Genentech, Inc., priority 2011, dated 2017).

Target: T1, topoisomerase I (Homo sapiens, UniProt P11387)
T1 sequence (P11387 1-765): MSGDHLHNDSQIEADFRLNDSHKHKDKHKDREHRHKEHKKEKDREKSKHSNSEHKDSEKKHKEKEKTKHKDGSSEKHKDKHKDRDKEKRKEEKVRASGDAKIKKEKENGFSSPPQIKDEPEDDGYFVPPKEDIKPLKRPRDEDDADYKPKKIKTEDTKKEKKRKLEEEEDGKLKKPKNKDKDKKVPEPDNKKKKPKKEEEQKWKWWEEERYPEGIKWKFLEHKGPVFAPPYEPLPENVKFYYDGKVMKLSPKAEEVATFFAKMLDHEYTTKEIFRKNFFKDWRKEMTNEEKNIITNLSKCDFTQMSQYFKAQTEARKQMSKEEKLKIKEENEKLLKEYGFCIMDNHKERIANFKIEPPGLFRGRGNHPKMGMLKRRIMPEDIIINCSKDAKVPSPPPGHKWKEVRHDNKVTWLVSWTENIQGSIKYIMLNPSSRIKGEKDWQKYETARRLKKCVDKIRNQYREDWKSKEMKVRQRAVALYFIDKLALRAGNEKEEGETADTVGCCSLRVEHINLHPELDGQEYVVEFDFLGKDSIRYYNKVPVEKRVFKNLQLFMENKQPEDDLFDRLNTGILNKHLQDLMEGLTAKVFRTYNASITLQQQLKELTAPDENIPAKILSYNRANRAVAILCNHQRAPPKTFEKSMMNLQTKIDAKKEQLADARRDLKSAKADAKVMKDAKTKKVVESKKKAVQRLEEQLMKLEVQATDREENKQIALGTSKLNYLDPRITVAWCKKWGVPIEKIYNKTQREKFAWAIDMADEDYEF
Settings: active metabolite versus irinotecan

## CCc1c2c(nc3ccc(O)cc13)-c1cc3c(c(=O)n1C2)COC(=O)[C@]3(O)CC [SN-38, 7-ethyl-10-hydroxy-camptothecin]
  more active than irinotecan itself: 200 times
